Experimental data reported in patent US4417052A, “Phenyl-lower-alkyl piperidines and pyrrolidines” (Sterling Drug Inc., priority 1981, dated 1983).
Counter-ions that a name gives are not always drawn.

Legend:
[1] = test system: adjuvant-induced arthritis; assay: inhibition of adjuvant-induced arthritis test (A.A.); assay type: in vivo; settings: oral; for A.A. percent inhibition (in brackets): corn oil vehicle; for A.A. percent inhibition (in parentheses): second experiment; for A.A. percent inhibition (Table B, footnote a): (a) data obtained after 17 days on test and 9 medications; for A.A. percent inhibition (Table B): formula V amides; for inhibition in vivo at 160 µmol/kg: dose 0.16 millimoles/kg
Protocol: (§1) Anti-inflammatory activity was determined using (1) the inhibition of carrageenin-induced foot edema test essentially described by Winter et al., Proc. Soc. Exp. Biol. and Med. 111, 554 (1962) as modified by Van Arman et al., J. Pharmacol. Exptl. Therap. 150, 328 (1965) and (2) a modification of the inhibition of adjuvant-induced arthritis test described by Pierson, J. Chronic Diseases 16, 863 (1963) and Glenn et al., Am. J. Vet. Res. 26, 1180 (1965).
(§2) The N-{2-,3- and 4-[R1 -(phenyl)-C(=X)]-phenyl-lower-alkyl}amines of formulas I, Ia and Ib of the invention have been tested in the carrageenin edema (CE) and adjuvant arthritis (AA) tests and found to have anti-inflammatory activity. For comparative purposes, data obtained in the carrageenin edema test on the reference compound (designated "Ref."), 4[(3-benzoylphenyl)methyl]morpholine, disclosed in French Patent 1,549,342, are also given. All data were obtained on oral administration.

[2] = test system: carrageenin-induced foot edema; assay: inhibition of carrageenin-induced foot edema test (C.E.); assay type: in vivo; settings: oral; for inhibition in vivo at 4 µmol/kg: dose 0.004 millimoles/kg; for inhibition in vivo at 20 µmol/kg: dose 0.02 millimoles/kg; for C.E. percent inhibition (Table B): formula V amides; for C.E. percent inhibition (Table B, footnote a): (a) data obtained after 17 days on test and 9 medications
Protocol: as §1, §2

[3] = dose 0.005 millimoles/kg, read-out: A.A. percent inhibition
[4] = dose 0.02 millimoles/kg, read-out: A.A. percent inhibition
[5] = dose 0.08 millimoles/kg, read-out: A.A. percent inhibition
[6] = read-out: C.E. percent inhibition
[7] = dose 0.08 millimoles/kg, read-out: C.E. percent inhibition
[8] = read-out: A.A. percent inhibition
[9] = dose 0.324 millimoles/kg, read-out: C.E. percent inhibition

SMILES	inhibition in vivo at 4 µmol/kg [2, 6]	inhibition in vivo at 20 µmol/kg [2, 6]	inhibition in vivo at 80 µmol/kg [2, 7]	inhibition in vivo at 324 µmol/kg [2, 9]	other results
CC(CN1CCCCC1CC1CCCCC1)c1cccc(C(=O)c2ccccc2)c1.Cl (single isomer, unassigned) [14(a), 2-cyclohexylmethyl-1-[2-(3-benzoylphenyl)propyl]piperidine hydrochloride]					A.A. percent inhibition (in brackets) ([1]; dose 0.0013 millimoles/kg): 0%; A.A. percent inhibition (in parentheses) ([1]; dose 0.0013 millimoles/kg): 28%; inhibition in vivo at 1.3 µmol/kg ([1]; dose 0.0013 millimoles/kg, read-out: A.A. percent inhibition): 16%; A.A. percent inhibition (in brackets) ([1]; dose 0.005 millimoles/kg): 39%; A.A. percent inhibition (in parentheses) ([1]; dose 0.005 millimoles/kg): 46%; inhibition in vivo at 5 µmol/kg [1, 3]: 46%; A.A. percent inhibition (in brackets) ([1]; dose 0.02 millimoles/kg): 65%; A.A. percent inhibition (in parentheses) ([1]; dose 0.02 millimoles/kg): 87%; inhibition in vivo at 20 µmol/kg [1, 4]: 79%
CC(CN1CCC2(CC1)OCCO2)c1cccc(C(=O)c2ccccc2)c1 (stereo not shown) [7G (base), 8-[2-(3-Benzoylphenyl)propyl]-1,4-dioxa-8-azaspiro[4,5]decane]	33%	42%			inhibition in vivo at 80 µmol/kg [1, 5]: 76%
CC(CN1CCOCC1)c1cccc(C(=O)c2ccccc2)c1 (stereo not shown) [7H (base), 4-[2-(3-Benzoylphenyl)propyl]morpholine]	29%	44%			inhibition in vivo at 80 µmol/kg [1, 5]: 81%
CC(C(=O)N1CCCCC1CC1CCCCC1)c1cccc(C(=O)c2ccccc2)c1 (stereo not drawn) [Example 1 (Table B), 2-cyclohexylmethyl-1-[α-(3-benzoylphenyl)propionyl]piperidine]					A.A. percent inhibition (Table B, footnote a) ([1]; dose 0.324 millimoles/kg): 67%; C.E. percent inhibition (Table B) ([2]; dose 0.08 millimoles/kg): 21%; C.E. percent inhibition (Table B, footnote a) ([2]; dose 0.324 millimoles/kg): 36%
CC(C(=O)N1CCN(C2CCCCC2)CC1)c1cccc(C(=O)c2ccccc2)c1.Cl (stereo not drawn) [Example 1E, 4-Cyclohexyl-1-[α-(3-benzoylphenyl)propionyl]piperazine hydrochloride]					A.A. percent inhibition (Table B) ([1]; dose 0.08 millimoles/kg): 63%; convulsions and salivation ([2]; C.E. test, dose 0.324 millimoles/kg): Convulsions and salivation produced in 2 of 8 test animals; C.E. percent inhibition (Table B) ([2]; dose 0.08 millimoles/kg): 10%; C.E. percent inhibition (Table B) ([2]; dose 0.324 millimoles/kg): 61%
CC(C(=O)N1CCN(c2ccccc2)CC1)c1cccc(C(=O)c2ccccc2)c1 (stereo not drawn) [Example 1F, 4-Phenyl-1-[α-(3-benzoylphenyl)propionyl]piperazine]					A.A. percent inhibition (Table B) ([1]; dose 0.324 millimoles/kg): 58%; C.E. percent inhibition (Table B) ([2]; dose 0.08 millimoles/kg): 2%; C.E. percent inhibition (Table B) ([2]; dose 0.324 millimoles/kg): 18%
CC(C(=O)N1CCC(CC2CCCCC2)CC1)c1cccc(C(=O)c2ccccc2)c1 (stereo not drawn) [Example 1L, 4-Cyclohexylmethyl-1-[α-(3-benzoylphenyl)propionyl]piperidine]					A.A. percent inhibition (Table B, footnote a) ([1]; dose 0.324 millimoles/kg): 74%; C.E. percent inhibition (Table B) ([2]; dose 0.08 millimoles/kg): 13%; C.E. percent inhibition (Table B, footnote a) ([2]; dose 0.324 millimoles/kg): 31%
COc1ccc(C(O)c2cccc(C(C)CN3CCCCC3CC3CCCCC3)c2)cc1 (stereo not drawn) [Example 3, 2-cyclohexylmethyl-1-{2-[3-(α-hydroxy-4-methoxybenzyl)phenyl]propyl}piperidine]		3%	35%		inhibition in vivo at 5 µmol/kg [1, 3]: 0%; inhibition in vivo at 20 µmol/kg [1, 4]: 2%; inhibition in vivo at 80 µmol/kg [1, 5]: 30%; inhibition in vivo at 5 µmol/kg ([2]; dose 0.005 millimoles/kg, read-out: C.E. percent inhibition): 0%
CC(CN1CCCC1CC1CCCCC1)c1cccc(C(O)c2ccccc2)c1 (stereo not drawn) [Example 3B, 2-Cyclohexylmethyl-1-{2-[3-(α-hydroxybenzyl)phenyl]propyl}pyrrolidine]			19%	63%	inhibition in vivo at 160 µmol/kg [1, 8]: 91%
COc1ccc(C(=O)c2cccc(C(C)CN3CCCCC3CC3CCCCC3)c2)cc1 (stereo not shown) [Example 7, 2-cyclohexylmethyl-1-{2-[3-(4-methoxybenzoyl)phenyl]propyl}piperidine]	0%	22%			inhibition in vivo at 80 µmol/kg [1, 5]: 63%
CC(CN1CCCC1CC1CCCCC1)c1cccc(C(=O)c2ccccc2)c1 (stereo not shown) [Example 7A, 2-Cyclohexylmethyl-1-[2-(3-benzoylphenyl)propyl]pyrrolidine]			45%	60%	inhibition in vivo at 160 µmol/kg [1, 8]: 90%
CC(CN1CCCCC1CC1CCCCC1)c1cccc(C(=O)c2ccc(F)cc2)c1 (stereo not shown) [Example 7B, 2-Cyclohexylmethyl-1-{2-[3-(4-fluorobenzoyl)phenyl]propyl}piperidine]	3%	38%			inhibition in vivo at 5 µmol/kg [1, 3]: 61%; inhibition in vivo at 20 µmol/kg [1, 4]: 55%; inhibition in vivo at 80 µmol/kg [1, 5]: 85%
CC(CN1CCCCC1CCCC1CCCCC1)c1cccc(C(=O)c2ccccc2)c1 (stereo not shown) [Example 7D, 2-(3-Cyclohexylpropyl)-1-[2-(3-benzoylphenyl)propyl]piperidine]			37%	49%	inhibition in vivo at 160 µmol/kg [1, 8]: 100%
CC(CN1CCCCC1CC1CCCCC1)c1cccc(C(C)c2ccccc2)c1 (stereo not drawn) [Example 11, 2-cyclohexylmethyl-1-{2-[3-(α-methylbenzyl)phenyl]propyl}piperidine]	0%	15%	29%	64%	
CC(CN1C(C)CCCC1C)c1cccc(C(=O)c2ccccc2)c1 (stereo not shown) [Example 13, 2,6-dimethyl-1-[2-(3-benzoylphenyl)propyl]piperidine]	0%		54%	56%	inhibition in vivo at 4 µmol/kg ([1]; dose 0.004 millimoles/kg, read-out: A.A. percent inhibition): 37%; inhibition in vivo at 15 µmol/kg ([1]; dose 0.015 millimoles/kg, read-out: A.A. percent inhibition): 52%; inhibition in vivo at 60 µmol/kg ([1]; dose 0.06 millimoles/kg, read-out: A.A. percent inhibition): 78%; inhibition in vivo at 15 µmol/kg ([2]; dose 0.015 millimoles/kg, read-out: C.E. percent inhibition): 15%; inhibition in vivo at 60 µmol/kg ([2]; dose 0.06 millimoles/kg, read-out: C.E. percent inhibition): 37%
CC(CN1CCCCC1)c1cccc(C(=O)c2ccccc2)c1 (stereo not shown) [Example 14A, 1-[2-(3-Benzoylphenyl)propyl]piperidine hydrochloride]			39%	67%	inhibition in vivo at 80 µmol/kg [1, 5]: 49%
ON=C(c1ccccc1)c1cccc(CCN2CCOCC2)c1 [Example 15A, 4-[2-(3-Benzoylphenyl)ethyl]morpholine oxime]			27%	29%	
NC(c1ccccc1)c1cccc(CCN2CCOCC2)c1 (stereo not drawn) [Example 16A, 4-{2-[3-(α-Aminobenzyl)phenyl]ethyl}morpholine dihydrochloride]			27%	39%	
CC(CN1CCOCC1)c1cccc(C(N)c2ccccc2)c1 (stereo not drawn) [Example 16C, 4-{2-[3-(α-Aminobenzyl)phenyl]propyl}morpholine dihydrochloride]			49%	84%	
C=C(c1ccccc1)c1cccc(C(C)CN2CCCCC2CC2CCCCC2)c1 (stereo not shown) [Example 17, 2-cyclohexylmethyl-1-{2-[3-(1-phenyl-1-vinyl)phenyl]propyl}piperidine]	9%	16%	47%	67%	
O=C(c1ccccc1)c1cccc(CCN2CCCCC2CC2CCCCC2)c1 (stereo not shown) [Example 20A, 2-Cyclohexylmethyl-1-[2-(3-benzoylphenyl)ethyl]piperidine]		25%	46%	70%	inhibition in vivo at 40 µmol/kg ([2]; dose 0.04 millimoles/kg, read-out: C.E. percent inhibition): 9%
CC(CN1CCCCC1CC1CCCCC1)c1cccc(C(=O)c2cccc(Cl)c2)c1 (stereo not shown) [Example 20B, 2-Cyclohexylmethyl-1-{2-[3-(3-chlorobenzoyl)phenyl]propyl}piperidine]	14%	0%	22%	65%	
CC(CN1CCCCC1CC1CCCCC1)c1cccc(C(=O)c2ccc(Cl)c(Cl)c2)c1 (stereo not shown) [Example 20C, 2-Cyclohexylmethyl-1-{2-[3-(3,4-dichlorobenzoyl)phenyl]propyl}piperidine]	17%	15%	19%	51%	
CC(c1cccc(C(=O)c2ccccc2)c1)N1CCOCC1 (stereo not shown) [Example 21, 4-[1-(3-benzoylphenyl)ethyl]morpholine]			32%	46%	
CN(C)C(c1ccccc1)c1cccc(CCN2CCOCC2)c1 (stereo not drawn) [Example 22, 4-{2-[3-(α-dimethylaminobenzyl)phenyl]ethyl}morpholine]			29%	63%	
O=C(c1ccccc1)c1cccc(CN2CCOCC2)c1 [Ref., 4[(3-benzoylphenyl)methyl]morpholine, reference compound]			0%	23%	
